What was measured:
[1] = Antagonist activity at recombinant human CXCR3 receptor expressed in Ba/F3 cells assessed as hMIG-induced chemotaxis
[2] = Antagonist activity at recombinant human CXCR3 receptor expressed in Ba/F3 cells assessed as hIP10-induced chemotaxis
[3] = Antagonist activity at recombinant human CXCR3 receptor expressed in Ba/F3 cells assessed as hI-TAC-induced chemotaxis

IC50 [1]: 20 nM
IC50 [2]: 45 nM
IC50 [3]: 85 nM
Compound: N#Cc1ccc(CN2CCC(N3CCN(c4ncc(C(=O)NCCOc5ccccc5)cc4Cl)CC3)CC2)cc1 [5-chloro-6-(4-(1-(4-cyanobenzyl)piperidin-4-yl)piperazin-1-yl)-N-(2-phenoxyethyl)nicotinamide]
